Laboratory results published in patent US20260258378A1, “GLYCOSYLTRANSFERASE ENGINEERING FOR CHEMOENZYMATIC TOTAL SYNTHESIS OF GANGLIOSIDES” (priority 2022, published 2026).

Tests used:
Format in all cases: biochemical, Campylobacter jejuni
[1] = system: MBP-CjCgtBΔ30-His6; experiment: Effects of divalent metal cations, EDTA and DTT on enzyme activity; details: pH 7.5, Tris-HCl buffer (100 mM); DTT 10 mM
Experimental: (§1) The enzymatic assays were carried out in duplicate at 37° C. for 10 minutes in a reaction mixture (10 μL) containing the donor substrate (1.5 mM, UDP-GalNAc for MBP-Δ15CjCgtA-His6 and UDP-Gal for MBP-CjCgtBΔ30-His6), an acceptor substrate (1 mM, GM3βNHCbz for MBP-Δ15CjCgtA-His6 and GM2βNHCbz for MBP-CjCgtBΔ30-His6), Tris-HCl buffer (100 mM, pH 7.5), a metal cation (10 mM, MgCl2 for MBP-Δ15CjCgtA-His6 and MnCl2 for MBP-CjCgtBΔ30-His6), and the enzyme (0.32 μM for MBP-Δ15CjCgtA-His6 and 4 μM for MBP-CjCgtBΔ30-His6). The reactions were stopped by adding 10 μL of ice-cold methanol followed by incubation of the mixture on ice for 20 minutes and centrifugation at 16200 g for 5 minutes. The supernatant (about 20 μL) was transferred into another tube containing ddH2O (40 μL) and the resulting mixture was analyzed by liquid chromatography-mass spectrometry (LC-MS) (SHIMADZU LCMS-2020 system with electrospray ionization) for confirming the product and ultra-high-performance liquid chromatography (UHPLC) (monitored at 215 nm on an Agilent Infinity 1290 II HPLC system equipped with 1260 Infinity II Diode Array Detector WR) for reaction yield determination. The column used for the UHPLC analysis was Dionex™ CarboPac™ PA-100 (1.8 μm particle, 4×250 mm, Thermo Scientific, CA) for both glycosyltransferases. A gradient flow (100% water to 70% water/30% 1 M NaCl in 16 min) was used for analyzing the reactions catalyzed by MBP-Δ15CjCgtA-His6 and a different gradient flow (100% water to 75% water/[…] in 16 min) was used for analyzing MBP-CjCgtBΔ30-His6-catalyzed reactions. The flow rate was 0.75 mL min^−1.
(§2) The effect of various metal ions, the chelating reagent EDTA, and the reducing reagent DTT on the enzyme activity of MBP-Δ15CjCgtA-His6 and MBP-CjCgtBΔ30-His6 were examined at pH 7.5 in a Tris-HCl buffer (100 mM). Reactions without metal ions were used as controls.

[2] = system: MBP-Δ15CjCgtA-His6; experiment: Effects of detergents on MBP-Δ15CjCgtA-His6-catalyzed OPME formation of GM2βSph; details: glycosphingosine acceptor, HRMS; sodium cholate 8-10 mM; Triton X-100 10 mM
Experimental: Assays were carried out at 30° C. for 12 hours in a total volume of 10 μL in Tris-HCl buffer (100 mM, pH 7.5) containing a GM3βSph (10 mM), GalNAc (15 mM), ATP (15 mM), UTP (15 mM), MgCl2 (20 mM), BLNahK (2 μg), PmGlmU (2 μg), MBP-Δ15CjCgtA-His6 (3 μg), PmPpA (1 μg), and various concentrations (0, 1, 2, 4, 5, 8, 10, 15, 18 mM) of sodium cholate or Triton X-100 (1, 5, 10, 15 mM). Reactions were quenched by addition of 10 μL of pre-chilled ethanol and the mixtures were incubated at 0° C. for 30 min, centrifuged, and the supernatant were analyzed by high resolution mass spectrometry (HRMS).
(§3) Glycosphingosines are much weaker acceptor substrates than the corresponding glycans for both CjCgtA and CjCgtB. This property made it prohibitive for synthesizing GM2βSph and GM1βSph in large-scales using the OPME strategy. […] The effects of these detergents in influencing the activities of both MBP-Δ15CjCgtA-His6 and MBP-CjCgtBΔ30-His6 in using glycosphingosine acceptor substrates and the reactions were analyzed by high-resolution mass spectrometry (HRMS).

[3] = system: MBP-CjCgtBΔ30-His6; experiment: Effects of detergents on MBP-CjCgtBΔ30-His6 with glycosphingosine acceptor substrates; details: HRMS, sodium cholate 8-10 mM, Triton X-100 10 mM
Experimental: as §3

[4] = system: MBP-Δ15CjCgtA-His6; experiment: Effects of divalent metal cations, EDTA and DTT on enzyme activity; details: pH 7.5, Tris-HCl buffer (100 mM); DTT 10 mM
Experimental: as §1, §2

Compound | effect on the enzyme activity of MBP-CjCgtBΔ30-His6 [1] | effect of detergent on reaction yield / enzyme activity [2] | effect of detergent on reaction yield / enzyme activity [3] | effect on the enzyme activity of MBP-Δ15CjCgtA-His6 [4]
[Mn+2] [Mn^2+] | preferred cation |  |  | 
C[C@H](CCC(=O)[O-])[C@H]1CC[C@H]2[C@@H]3[C@H](O)C[C@@H]4C[C@H](O)CC[C@]4(C)[C@H]3C[C@H](O)[C@]12C.[Na+] [sodium cholate] |  | greatly enhanced | greatly enhanced | 
O[C@H](CS)[C@H](O)CS (racemic) [dithiothreitol] | improved the activity |  |  | deactivated
[Ca+2] [Ca^2+] | not |  |  | suitable
[Mg+2] [Mg^2+] | less effective |  |  | equally effective
Triton X-100 |  | improved | improved | 
